Test results taken from patent publication EP2014284A1, “Pharmaceutical compositions and uses” (NOVARTIS AG, priority 2007, dated 2009).
Marks after values point to notes of the source that are not given here.

System: hypertensive OA patients
From the text: Method: A 4-week, multicenter, randomized, double-blind, double-dummy, parallel group study of hypertensive OA patients aged ≥50 years (office BP ≤140/90 mmHg) on stable antihypertensive treatment. […] The primary outcome measure was the change from baseline (BL) at Week 4 in 24-hour mean ambulatory systolic BP (MASBP) in the intent-to-treat (ITT) population using ANCOVA. The secondary analyses included 24-hour mean ambulatory diastolic BP (MADBP […]. In addition, a post-hoc subgroup analysis was performed to evaluate the primary and secondary analysis at Week 4 (using ANCOVA) for patients exclusively on ACE inhibitors as antihypertensive drug.

[1] = change from baseline, lumiracoxib (n=140) vs ibuprofen (n=132), patients exclusively on ACE-inhibitors, p<0.001

Clinically relevant increase (>= 5 mm Hg increase in 24 h MADBP and/or >= 10 mm Hg increase in 24h MASBP), number of patients (human, in vivo, 4 weeks) | Clinically relevant increase (>= 5 mm Hg increase in 24 h MADBP and/or >= 10 mm Hg increase in 24h MASBP), share of patients (human, in vivo, 4 weeks) | SMILES | increase in MASBP (change from BL at Week 4, 24-hour MASBP, ibuprofen 600 mg tid) | decrease in MASBP (change from BL at Week 4, 24-hour MASBP, lumiracoxib 100 mg od) | 24 h MADBP Difference in LSM (95% CI) [1] | 24 h MASBP Difference in LSM (95% CI) [1] | 24-hour MADBP, estimated treatment difference (lumiracoxib 100 mg od vs ibuprofen 600 mg tid, Week 4, [95% CI: -2.7, -1.3], p<0.001)
– | – | CC(C)Cc1ccc(C(C)C(=O)O)cc1 (stereo not shown) [ibuprofen] | 2.2 mmHg | – | – | – | –
13 patients | 9.3% | Cc1ccc(Nc2c(F)cccc2Cl)c(CC(=O)O)c1 [lumiracoxib, 5-methyl-2-(2'-chloro-6'-fluoroanilino)phenylacetic acid] | – | 2.7 mmHg | -3.9 (-5.1,-2.7)* | -7.5 (-9.6, -5.5)* | -2 mmHg
